What is called EC50 is the concentration needed to bring the measured effect to its halfway point. As a reminder, the IC50 is the concentration that gives 50% inhibition. For orientation: IC90 means the concentration at which the effect reaches the 90% level. The low end stands for an effect from little substance, the high end for a need for much substance.

The structures appear in SMILES notation.

Series [1] relates to Influenza A virus. Put plainly: Antiviral activity against influenza A/Hong Kong/7/87 (H3N2) in MDCK cells assessed as inhibition of virus-induced cytopathic effect by MTS assay. Type of series: functional, organism-based.
Series [2] can be described thus: Cytotoxicity against MDCK cells assessed as changes in cell morphology. Conditions: dog. The series is classed as cell-based, Canis lupus familiaris.
Series [3] concerns Trypanosoma brucei. Put plainly: Antiparasitic activity against Trypanosoma brucei 221 blood stream form at pH 7.4. The series is classed as functional, organism-based.

Regarding `C1C2CC3CC1CC(C2)C31CN1` (centres undefined), in series [1] (Influenza A virus, H3N2, MDCK), the EC50 is over 5 µM. Further, in series [2], the MCC amounted to 25 µM. Moreover, the IC50 in series [3] was over 30 µM.

Take `CN1CC12C1CC3CC(C1)CC2C3` (centres undefined): the EC50 in series [1] (Influenza A virus, H3N2, MDCK) was over 4.5 µM. The MCC in series [2] was 23 µM.

Consider `C1CC2(N1)C1CC3CC(C1)CC2C3` (centres undefined), for which the EC50 in series [1] (Influenza A virus, H3N2, MDCK) was found to be 0.36 µM. Further, the MCC in series [2] was found to be 250 µM.

In series [3], `C1CC2(CCN1)C1CC3CC(C1)CC2C3` displayed an IC50 of 5.28 µM and an IC90 of 9.99 µM.

In turn, `O=C1NC(=O)C2(C(=O)N1)C1CC3CC(C1)CC2C3` showed an IC50 in series [3] of 20 µM.

As for `C1C2CC3CC1CC(C2)C31CNC1`, in series [1] (Influenza A virus, H3N2, MDCK), the EC50 is 0.33 µM. In addition, the MCC in series [2] came out at 113 µM.

As for `CN1CCC12C1CC3CC(C1)CC2C3` (centres undefined), the EC50 in series [1] (Influenza A virus, H3N2, MDCK) came to 0.59 µM. Also, the MCC in series [2] was found to be 50 µM. Further, in series [3], the IC50 was over 25 µM.

Take `CN1CCC2(CC1)C1CC3CC(C1)CC2C3`: the half-inhibitory concentration (IC50) in series [3] was over 20 µM.

`CN1CCC2(CC1)C1CC3CC(C1)CC2C3.Cl`: in series [1] (Influenza A virus, H3N2, MDCK), the EC50 is 4.3 µM. Further, the MCC in series [2] came to 4 µM.

On to `C1CC2(CCN1)C1CC3CC(C1)CC2C3.Cl`, for which, in series [1] (Influenza A virus, H3N2, MDCK), the EC50 is 0.16 µM. In series [2], the MCC is 17 µM.

For the compound `NC12CC3CC(CC(C3)C1)C2` [AMANTADINE], in series [1] (Influenza A virus, H3N2, MDCK), the EC50 was found to be 1.98 µM. Besides, the MCC in series [2] is over 100 µM. In series [3], this compound returned an IC50 of over 130 µM.

In the case of `NC(=O)c1ncn([C@@H]2O[C@H](CO)[C@@H](O)[C@H]2O)n1` [RIBAVIRIN], in series [1] (mdck), the EC50 worked out at 8.68 µM. For the same compound, the MCC in series [2] was 20 µM.

With `CC(N)C12CC3CC(CC(C3)C1)C2` (centres undefined) [RIMANTADINE], the EC50 in series [1] (Influenza A virus, H3N2, MDCK) is 0.362 µM. The MCC in series [2] is over 100 µM. Besides, in series [3], the IC50 is 7.04 µM and the IC90 came out at 14 µM.
